Laboratory results from US9980945B2, “Benzoisoxazole-substituted compounds as MGLUR4 allosteric potentiators, compositions, and methods of treating neurological dysfunction” (Vanderbilt University, priority 2015, dated 2018).

Molecular target: mGluR4 (UniProt Q14833)
Test: mGluR4 potentiation assay (EC50 for potentiation at EC20 agonist; fluorometric plate reader, Ca2+ or thallium dye)
Format: cell-based
Details: potentiation of mGluR4; species of receptor not given
Experimental: The disclosed compounds and compositions can be evaluated for their ability to act as a potentiator of metabotropic glutamate receptor activity, in particular mGluR4 activity, by any suitable known methodology known in the art. For example, Chinese Hamster Ovary (CHO) cells transacted with human mGluR4 or HEK cells co-transfected with rat mGluR4 and the G-protein regulated Inwardly Rectifying Potassium channel (GIRK) were plated in clear bottom assay plates for assay in a Hamamatsu FDSS Fluorometric Plate Reader. The cells were loaded with either a Ca2+-sensitive fluorescent dye or the thallium responsive dye and the plates were washed and placed into a suitable kinetic plate reader. For human mGluR4 assays, a fluorescence baseline was established for 3-5 seconds, the disclosed compounds were then added to the cells, and the response in cells was measured. Approximately two and a half minutes later, a concentration of mGluR4 orthosteric agonist (e.g. glutamate or L-AP4) eliciting approximately 20% (EC20) of the maximal agonist response was added to the cells, and the response was measured. Two minutes later, a concentration of mGluR4 agonist (e.g. glutamate or L-AP4) eliciting 80% (EC80) of the maximal agonist response was added to the cells, and the response was measured. For rat mGluR4/GIRK experiments, a baseline was established for approximately five seconds, disclosed compounds were added, and either an EC20 or EC80 concentration of agonist was added approximately two and one half minutes later. Potentiation of the agonist response of mGluR4 by the disclosed compounds was observed as an increase in response to the EC20 concentration of agonist in the presence of compound compared to the response to agonist in the absence of compound. Similarly, antagonism of the agonist response of mGluR4 by the disclosed compounds was observed as a decrease in response to the EC80 concentration of agonist in the presence of compound compared to the response to agonist in the absence of compound.
The above described assay operated in two modes. In the first mode, a range of concentrations of the disclosed compounds are added to cells, followed by a single fixed concentration of agonist. If the compound acts as a potentiator, an EC50 so value for potentiation and a maximum extent of potentiation by the compound at this concentration of agonist is determined by non-linear curve fitting. If the compound acts as a noncompetitive antagonist, an IC50 value is determined by non-linear curve fitting. In the second mode, several fixed concentrations of the disclosed compounds are added to various wells on a plate, followed by a range in concentrations of agonist for each concentration of disclosed compound. The EC50 values for the agonist at each concentration of compound are determined by non-linear curve fitting. A decrease in the EC50 value of the agonist with increasing concentrations of the sample compound (a leftward shift of the agonist concentration-response curve) is an indication of the degree of mGluR4 potentiation at a given concentration of the sample compound. A decrease in the maximal response of the agonist with increasing concentrations of the sample compounds, with or without a rightward shift in agonist potency, is an indication of the degree of noncompetitive antagonism at mGluR4. The second mode also indicates whether the sample compounds also affect the maximum response to mGluR4 to agonists.

Compound	EC50
CN(Cc1ccncc1)C(=O)Cc1noc2cc(Nc3n[nH]c4cccnc34)ccc12 [Example 160, N-methyl-2-[6-(1H-pyrazolo[4,3-b]pyridin-3-ylamino)-1,2-benzoxazol-3-yl]-N-(4-pyridylmethyl)acetamide]	3430 nM
CC(C)(C)Cc1noc2cc(Nc3n[nH]c4nccnc34)ccc12 [Example 14, 3-neopentyl-N-(1H-pyrazolo[3,4-b]pyrazin-3-yl)benzo[d]isoxazol-6-amine]	617 nM
CCc1noc2cc(Nc3n[nH]c4ncccc34)ccc12 [Example 15, 3-ethyl-N-(1H-pyrazolo[3,4-b]pyridin-3-yl)benzo[d]isoxazol-6-amine]	2100 nM
Cc1noc2c(F)cc(Nc3n[nH]c4cccnc34)cc12 [Example 105, 7-fluoro-3-methyl-N-(1H-pyrazolo[4,3-b]pyridin-3-yl)-1,2-benzoxazol-5-amine]	77.1 nM
CCCC(C)c1noc2cc(Nc3n[nH]c4ncc(F)cc34)ccc12 (stereo not shown) [Example 96, N-(5-fluoro-1H-pyrazolo[3,4-b]pyridin-3-yl)-3-(1-methylbutyl)-1,2-benzoxazol-6-amine]	418 nM
O=C(Cc1noc2cc(Nc3n[nH]c4cccnc34)ccc12)N1CCN(CC(F)(F)F)CC1 [Example 161, 2-[6-(1H-pyrazolo[4,3-b]pyridin-3-ylamino)-1,2-benzoxazol-3-yl]-1-[4-(2,2,2-trifluoroethyl)piperazin-1-yl]ethanone]	1870 nM
Fc1cncc(OCc2noc3cc(Nc4n[nH]c5cccnc45)ccc23)c1 [Example 176, 3-[(5-fluoro-3-pyridyl)oxymethyl]-N-(1H-pyrazolo[4,3-b]pyridin-3-yl)-1,2-benzoxazol-6-amine]	767 nM
CC1CN(c2noc3cc(Nc4n[nH]c5cccnc45)ccc23)CC(C)O1 (stereo not shown) [Example 28, 3-(2,6-dimethylmorpholino)-N-(1H-pyrazolo[4,3-b]pyridin-3-yl)benzo[d]isoxazol-6-amine]	1860 nM
c1cncc(OCc2noc3cc(Nc4n[nH]c5cccnc45)ccc23)c1 [Example 169, N-(1H-pyrazolo[4,3-b]pyridin-3-yl)-3-(3-pyridyloxymethyl)-1,2-benzoxazol-6-amine]	> 30000 nM
c1cnc2c(Nc3ccc4c(OC5CCOCC5)noc4c3)n[nH]c2c1 [Example 26, N-(1H-pyrazolo[4,3-b]pyridin-3-yl)-3-((tetrahydro-2H-pyran-4-yl)oxy)benzo[d]isoxazole-6-amine]	1200 nM
CC(C)Cc1noc2cc(Nc3n[nH]c4ncccc34)ccc12 [Example 9, 3-isobutyl-N-(1H-pyrazolo[3,4-b]pyridin-3-yl)benzo[d]isoxazol-6-amine]	4800 nM
CCc1noc2cc(Nc3n[nH]c4nccnc34)ccc12 [Example 19, 3-ethyl-N-(1H-pyrazolo[3,4-b]pyrazin-3-yl)benzo[d]isoxazol-6-amine]	1310 nM
CC(C)(C)Cc1noc2cc(Nc3n[nH]c4cccnc34)cc(F)c12 [Example 145, 3-(2,2-dimethylpropyl)-4-fluoro-N-(1H-pyrazolo[4,3-b]pyridin-3-yl)-1,2-benzoxazol-6-amine; 2,2,2-trifluoroacetate acid]	1450 nM
CC(C)Cc1noc2cc(Nc3n[nH]c4ccccc34)ccc12 [Example 10, N-(1H-indazol-3-yl)-3-isobutylbenzo[d]isoxazol-6-amine]	> 10000 nM
FC(F)(F)CCc1noc2cc(Nc3n[nH]c4nccnc34)ccc12 [Example 100, N-(1H-pyrazolo[3,4-b]pyrazin-3-yl)-3-(3,3,3-trifluoropropyl)-1,2-benzoxazol-6-amine]	192 nM
CC(C)(C)Cc1noc2cc(Nc3n[nH]c4nccnc34)cc(F)c12 [Example 149, 3-(2,2-dimethylpropyl)-4-fluoro-N-(1H-pyrazolo[3,4-b]pyrazin-3-yl)-1,2-benzoxazol-6-amine]	> 10000 nM
CC1(COc2noc3cc(Nc4n[nH]c5cccnc45)ccc23)COC1 [Example 41, 3-[(3-methyloxetan-3-yl)methoxy]-N-(1H-pyrazolo[4,3-b]pyridin-3-yl)-1,2-benzoxazol-6-amine]	2820 nM

Second part, the molecule after the results:

EC50	Compound
76 nM	Cc1noc2ccc(Nc3n[nH]c4cccnc34)cc12 [Example 22, 3-methyl-N-(1H-pyrazolo[4,3-b]pyridin-3-yl)benzo[d]isoxazol-5-amine]
539 nM	CC(C)(C)CNCc1noc2cc(Nc3n[nH]c4cccnc34)ccc12 [Example 77, 3-[(2,2-dimethylpropylamino)methyl]-N-(1H-pyrazolo[4,3-b]pyridin-3-yl)-1,2-benzoxazol-6-amine]
1490 nM	CCCCC(F)c1noc2cc(Nc3n[nH]c4cccnc34)ccc12 (stereo not shown) [Example 147, 3-(1-fluoropentyl)-N-(1H-pyrazolo[4,3-b]pyridin-3-yl)-1H-benzoxazol-6-amine]
> 10000 nM	CCCCC(F)(F)c1noc2cc(Nc3n[nH]c4cccnc34)ccc12 [Example 136, 3-(1,1-difluoropentyl)-N-(1H-pyrazolo[4,3-b]pyridin-3-yl)-1,2-benzoxazol-6-amine]
118 nM	CCCC(C)c1noc2cc(Nc3n[nH]c4cccnc34)ccc12 (stereo not shown) [Example 94, 3-(1-methylbutyl)-N-(1H-pyrazolo[4,3-b]pyridin-3-yl)-1,2-benzoxazol-6-amine]
1990 nM	CCC(F)(F)c1noc2cc(Nc3n[nH]c4cccnc34)ccc12 [Example 179, 3-(1,1-difluoropropyl)-N-(1H-pyrazolo[4,3-b]pyridin-3-yl)-1,2-benzoxazol-6-amine]
132 nM	CCC(CC)c1noc2cc(Nc3n[nH]c4cccnc34)ccc12 [Example 85, 3-(1-ethylpropyl)-N-(1H-pyrazolo[4,3-b]pyridin-3-yl)-1,2-benzoxazol-6-amine]
673 nM	CCCC(C)c1noc2cc(Nc3n[nH]c4ncccc34)ccc12 (stereo not shown) [Example 95, 3-(1-methylbutyl)-N-(1H-pyrazolo[3,4-b]pyridin-3-yl)-1,2-benzoxazol-6-amine]
